Two compounds from patent US20240302368A1, “MIGRATION OF HUMAN PERIPHERAL LEUKOCYTES IN RESPONSE TO CHEMOTACTIC FACTORS DURING PREGNACY” (The Governors of the University of Alberta, priority 2021, published 2024) can be followed below.

SMILES strings stand for the structures.

In one assay the target is T1, CCR1 (Homo sapiens, UniProt P32246).
T1 construct: Whole blood is collected from a pregnant person into an EDTA-coated collection tube; endogenous in cells; host or cells: total peripheral leukocytes from pregnant women in term labour
T1 sequence (P32246 1-355): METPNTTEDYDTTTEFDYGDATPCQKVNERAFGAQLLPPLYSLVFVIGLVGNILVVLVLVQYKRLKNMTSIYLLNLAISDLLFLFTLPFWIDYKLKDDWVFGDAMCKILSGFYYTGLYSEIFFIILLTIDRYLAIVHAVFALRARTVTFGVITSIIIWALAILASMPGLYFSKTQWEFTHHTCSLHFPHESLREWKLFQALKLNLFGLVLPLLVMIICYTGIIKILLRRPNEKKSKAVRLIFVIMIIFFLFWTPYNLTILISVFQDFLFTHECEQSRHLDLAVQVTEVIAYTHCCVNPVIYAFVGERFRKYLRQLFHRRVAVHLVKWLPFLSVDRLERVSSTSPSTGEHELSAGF
Put plainly: Term leukocyte chemotaxis towards TL homogenized extracts (LMA), CCR1 inhibition. Format: cell-based. As to conditions: increasing concentrations, FIG. 18. As for the experimental part:
(§1) Chemotaxis Assay: Chemoattractants (50 μL) are loaded into the lower wels of a simple, resin 3D printed, 3-well chemotaxis chamber and a polycarbonate filter with 3 μm pores (Neuro Probe Inc., MD, USA) is placed on top of the wells. A silicone gasket with holes for each well is positioned on top of the filter and the upper chamber is lowered onto the silicone gasket, creating a tight seal. Total leukocytes (100 μL) are loaded into the wells of the upper chamber and the apparatus is incubated at 90 min at 37 C in 5% CO2. The apparatus is then disassembled and leukocytes that have migrated through the filter into the lower chamber are quantified using a hemocytometer, flow cytometry or fluorescence spectrometry.
(§2) We will use SB 225002 (CXCR2 antagonist) and J 113863 (CCR1 antagonist), which are commercially available from RND Systems for around USD 200 each. A time course and kinetics experiment will be performed for each antagonist to optimize incubation length and concentration. TL leukocytes (n=6) will be inhibited with each antagonist using these optimized parameters, and the resulting number of leukocytes that undergo chemotaxis to TL chemoattractant in our LMA will be compared to control (i.e. non-treated leukocytes).

The target of a further assay is T2, CXCR2 (Homo sapiens, UniProt P25025).
T2 construct: Whole blood is collected from a pregnant person into an EDTA-coated collection tube; endogenous in cells; host or cells: total peripheral leukocytes from pregnant women in term labour
T2 sequence (P25025 1-360): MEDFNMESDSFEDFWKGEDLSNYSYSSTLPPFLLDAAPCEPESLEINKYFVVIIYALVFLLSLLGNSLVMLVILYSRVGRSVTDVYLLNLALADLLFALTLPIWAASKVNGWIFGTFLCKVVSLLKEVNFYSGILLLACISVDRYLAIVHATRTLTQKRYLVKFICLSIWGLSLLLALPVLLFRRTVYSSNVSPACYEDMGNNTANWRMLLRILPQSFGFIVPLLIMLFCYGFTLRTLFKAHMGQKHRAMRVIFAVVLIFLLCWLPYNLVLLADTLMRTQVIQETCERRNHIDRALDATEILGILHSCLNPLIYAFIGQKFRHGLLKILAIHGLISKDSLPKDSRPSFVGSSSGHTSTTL
Put plainly: Term leukocyte chemotaxis towards TL homogenized extracts (LMA), CXCR2 inhibition. As to conditions: increasing concentrations, FIG. 18. Format: cell-based. The procedure: as §1, §2

Turning to `CC[N+]1(C/C2=C/CCCCCC2)CCC(NC(=O)C2c3cc(Cl)ccc3Oc3ccc(Cl)cc32)CC1.[I-]` (centres unmarked) [J113863], the term leukocyte migration entry at CCR1 is reported as “decrease leukocyte migration”. Turning to `O=C(Nc1ccc([N+](=O)[O-])cc1O)Nc1ccccc1Br` [SB225002], the term leukocyte migration entry at CXCR2 is “decrease leukocyte migration”.
